Values quoted from earlier work, collected in patent US20030198684A1 (priority 2002, published 2003).
Like-named read-outs stand apart in the source and are kept apart here.

Key:
[1] = supplementation
[2] = in vivo
[3] = supplementation; remark: listed apart in the source
young female rats = details: constant infusion
aromatase = molecular target: T1, aromatase (Homo sapiens, UniProt P11511); details: compared with chrysin, AG and ANG
T1 sequence (P11511 1-503): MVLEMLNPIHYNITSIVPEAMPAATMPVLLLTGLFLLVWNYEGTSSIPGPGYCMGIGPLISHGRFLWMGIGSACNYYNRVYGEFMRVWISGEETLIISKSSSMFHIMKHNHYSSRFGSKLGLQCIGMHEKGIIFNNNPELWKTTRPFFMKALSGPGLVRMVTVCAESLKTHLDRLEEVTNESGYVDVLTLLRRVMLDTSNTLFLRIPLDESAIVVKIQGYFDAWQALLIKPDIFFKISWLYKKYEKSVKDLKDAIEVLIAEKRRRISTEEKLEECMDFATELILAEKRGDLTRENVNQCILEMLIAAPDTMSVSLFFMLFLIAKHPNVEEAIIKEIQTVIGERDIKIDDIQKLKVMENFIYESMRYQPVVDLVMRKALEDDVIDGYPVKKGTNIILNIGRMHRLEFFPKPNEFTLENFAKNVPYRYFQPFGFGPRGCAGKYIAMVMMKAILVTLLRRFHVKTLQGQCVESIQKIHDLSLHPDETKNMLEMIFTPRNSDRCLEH

[4] = for waking erection: Asian hypogonadal men; for sexual interest and activity, spontaneous erection: Caucasian hypogonadal men
[5] = tested on: prostate and seminal vesicle weights
[6] = 300 mg/wk for six weeks; TE: shoulders; ND: shoulders and chest
[7] = HIV-infected men, pharmacological doses
[8] = body builders
[9] = in vivo; remark: listed apart in the source
[10] = patients on dialysis, compared with placebo

Structure (SMILES): C[C@]12CC[C@H]3[C@@H](CCC4=C[C@@H](O)CC[C@@]43C)[C@@H]1CC[C@@H]2O [4-androstenediol]
- urine testosterone concentration relative to 4androstenedione [1]: 10 fold
- human serum testosterone levels [2]: produce elevations in human serum testosterone levels

Structure (SMILES): C[C@]12CCC(=O)C=C1CC[C@@H]1[C@@H]2CC[C@]2(C)C(=O)CC[C@@H]12 [4-androstenedione]
- serum testosterone [3]: produced elevations in serum testosterone

Structure (SMILES): C[C@]12CC[C@H]3[C@@H](CC=C4C[C@@H](O)CC[C@@]43C)[C@@H]1CC[C@@H]2O [5-androstenediol]
- lipid deposition or heat production (young female rats): did not have a significant effect
- proportion of protein in the body composition (young female rats): increased

Structure (SMILES): COc1ccc(-c2coc3cc(O)cc(O)c3c2=O)cc1 [Biochanin A, 5,7-dihydroxy-4′-methoxyisoflavone]
- aromatase inhibition (in words) (aromatase): inhibited aromatase, but to a lesser degree

Structure (SMILES): C[C@]12CC[C@H](O)CC1=CC[C@@H]1[C@@H]2CC[C@]2(C)C(=O)CC[C@@H]12 [DHEA, dehydro-epiandrosterone]
- plasma testosterone (50 mg dose of DHEA): restored plasma testosterone to levels similar to those observed in young women
- delta 5-androstenediol (50 mg or 200 mg DHEA): small increase
- plasma delta 4-androstenedione increase (50 mg or 200 mg DHEA): significant and dose dependent
- plasma estrogens, particularly estradiol (50 mg or 200 mg DHEA): significant and dose dependent increase
- plasma testosterone (200 mg dose of DHEA): important increase of plasma testosterone, slightly below the levels observed in normal men
- increase of plasma dihydrotestosterone levels (both doses of DHEA): small at both doses

Structure (SMILES): C[C@@H]1CC2=CC(=O)CC[C@@H]2[C@H]2CC[C@]3(C)[C@@H](O)CC[C@H]3[C@@H]21 [MENT, 7α-methyl-19-nor-testosterone]
- waking erection [4]: increased waking erection
- sexual interest and activity, spontaneous erection [4]: significant increases
- androgenic potency relative to testosterone [5]: four- to five-times more androgenic than testosterone
- anabolic potency relative to testosterone (levator ani muscles): ten-times as potent as testosterone

Structure (SMILES): CCCCCCC(=O)O[C@H]1CC[C@H]2[C@@H]3CCC4=CC(=O)CC[C@]4(C)[C@H]3CC[C@]12C [TE, testosterone enanthate]
- body circumferences (of fifteen) [6]: significant increases
- waking erection [4]: increased waking erection
- sexual interest and activity, spontaneous erection [4]: significant increases

Structure (SMILES): CCCCCCCCCC(=O)O[C@H]1CC[C@H]2[C@@H]3CCC4=CC(=O)CC[C@@H]4[C@H]3CC[C@]12C [nandrolone decanoate, 19-nor-testosterone decanoate]
- body circumferences (of fifteen) [6]: significant increases
- total weight, lean body mass, body cell mass, muscle size, and strength [7]: significant gains

Structure (SMILES): C[C@]12CC[C@H]3[C@@H](CCC4=CC(=O)CC[C@@H]43)[C@@H]1CC[C@@H]2O [nandrolone, 19-nor-testosterone]
- decrease in HDL-choresterol and diastolic blood pressure [8]: 25-27%
- azoospermia [9]: azoospermia (lack of sperm) associated with nandrolone use
- lean body mass [10]: increased significantly
- energy expenditure (young female rats): increased energy expenditure

Structure (SMILES): C[C@]12CC[C@H]3[C@@H](CCC4=CC(=O)CC[C@@]43C)[C@@H]1CC[C@@H]2O [testosterone]
- lipid deposition or heat production (young female rats): did not have a significant effect
- proportion of protein in the body composition (young female rats): increased
